# Patent EP0385712B1, “A peptide for use in the manufacture of a composition for prevention or treatment of a condition susceptible to treatment with a platelet aggregation inhibition agent” (ASAHI KASEI KOGYO KABUSHIKI KAISHA, priority 1989, dated 1994)
# Positions of bridges follow the written chain, without caps; N, C: chain ends. Residues, ends and D or L forms follow the SMILES beside them.
# Tested on: rat, Wister strain
# Experiment: Acute toxicity in rat, intravenous
# Type: in vivo
# Details: body weight 80 - 90 g, 80 µg/kg intravenously in the tail, solution in 0.1 M aqueous sodium acetate containing 0.1 % bovine serum albumin
# Method: A solution of each of the following compounds in 0.1 M aqueous sodium acetate containing 0.1 % bovine serum albumin is administered into a rat, Wister strain, body weight 80 - 90 g, 80 µg/kg, intraveneously in the tail.
row,Molecule,Acute toxicity (deaths)
1,"CC(C)C[C@H](NC(=O)[C@H](CCCNC(=N)N)NC(=O)[C@H](Cc1c[nH]cn1)NC(=O)[C@@H](NC(=O)[C@@H](NC(=O)[C@@H]1CSSC[C@H](NC(=O)[C@H](C)N)C(=O)N[C@@H](CC(N)=O)C(=O)N[C@@H]([C@@H](C)O)C(=O)N[C@@H](C)C(=O)N[C@@H]([C@@H](C)O)C(=O)N1)C(C)C)[C@@H](C)O)C(=O)N[C@@H](C)C(=O)N[C@@H](CC(=O)O)C(=O)N[C@@H](CC(C)C)C(=O)N[C@@H](CC(C)C)C(=O)N[C@@H](CO)C(=O)N[C@@H](CCCNC(=N)N)C(=O)N[C@@H](CO)C(=O)NCC(=O)NCC(=O)N[C@H](C(=O)NCC(=O)N[C@@H](CCCCN)C(=O)N[C@@H](CC(N)=O)C(=O)N[C@@H](CC(N)=O)C(=O)N[C@@H](Cc1ccccc1)C(=O)N[C@H](C(=O)N1CCC[C@H]1C(=O)N[C@H](C(=O)N[C@@H](CC(N)=O)C(=O)N[C@H](C(=O)NCC(=O)N[C@@H](CO)C(=O)N[C@@H](CCCCN)C(=O)N[C@@H](C)C(=O)N[C@@H](Cc1ccccc1)C(N)=O)C(C)C)[C@@H](C)O)C(C)C)C(C)C [[Asn³, Asp¹⁴, Gly²³] -h -α-CGRP] (H-ACNTATCVTHRLADLLSRSGGVGKNNFVPTNVGSKAF-NH2; disulfide 2-7)",No deaths were observed
2,"CC(C)C[C@H](NC(=O)[C@H](CCCNC(=N)N)NC(=O)[C@H](Cc1c[nH]cn1)NC(=O)[C@@H](NC(=O)[C@@H](NC(=O)[C@@H]1CSSC[C@H](NC(=O)[C@H](C)N)C(=O)N[C@@H](CC(N)=O)C(=O)N[C@@H]([C@@H](C)O)C(=O)N[C@@H](C)C(=O)N[C@@H]([C@@H](C)O)C(=O)N1)C(C)C)[C@@H](C)O)C(=O)N[C@@H](C)C(=O)N[C@@H](CC(=O)O)C(=O)N[C@@H](Cc1ccccc1)C(=O)N[C@@H](CC(C)C)C(=O)N[C@@H](CO)C(=O)N[C@@H](CCCNC(=N)N)C(=O)N[C@@H](CO)C(=O)NCC(=O)NCC(=O)N[C@H](C(=O)N[C@H](C(=O)N[C@@H](CCCCN)C(=O)N[C@@H](CC(N)=O)C(=O)N[C@@H](CC(N)=O)C(=O)N[C@@H](Cc1ccccc1)C(=O)N[C@H](C(=O)N1CCC[C@H]1C(=O)N[C@H](C(=O)N[C@@H](CC(N)=O)C(=O)N[C@H](C(=O)NCC(=O)N[C@@H](CO)C(=O)N[C@@H](CCCCN)C(=O)N[C@@H](C)C(=O)N[C@@H](Cc1ccccc1)C(N)=O)C(C)C)[C@@H](C)O)C(C)C)C(C)C)C(C)C [[Asn³, Asp¹⁴, Phe¹⁵] -h -α-CGRP] (H-ACNTATCVTHRLADFLSRSGGVVKNNFVPTNVGSKAF-NH2; disulfide 2-7)",No deaths were observed
3,"CC(C)C[C@H](NC(=O)[C@H](CCCNC(=N)N)NC(=O)[C@H](Cc1c[nH]cn1)NC(=O)[C@@H](NC(=O)[C@@H](NC(=O)[C@@H]1CSSC[C@H](NC(=O)[C@H](C)N)C(=O)N[C@@H](CC(N)=O)C(=O)N[C@@H]([C@@H](C)O)C(=O)N[C@@H](C)C(=O)N[C@@H]([C@@H](C)O)C(=O)N1)C(C)C)[C@@H](C)O)C(=O)N[C@@H](C)C(=O)N[C@@H](CCC(=O)O)C(=O)N[C@@H](CC(C)C)C(=O)N[C@@H](CC(C)C)C(=O)N[C@@H](CO)C(=O)N[C@@H](CCCNC(=N)N)C(=O)N[C@@H](CO)C(=O)NCC(=O)NCC(=O)N[C@H](C(=O)NCC(=O)N[C@@H](CCCCN)C(=O)N[C@@H](CC(N)=O)C(=O)N[C@@H](CC(N)=O)C(=O)N[C@@H](Cc1ccccc1)C(=O)N[C@H](C(=O)N1CCC[C@H]1C(=O)N[C@H](C(=O)N[C@@H](CC(N)=O)C(=O)N[C@H](C(=O)NCC(=O)N[C@@H](CO)C(=O)N[C@@H](CCCCN)C(=O)N[C@@H](C)C(=O)N[C@@H](Cc1ccccc1)C(N)=O)C(C)C)[C@@H](C)O)C(C)C)C(C)C [[Asn³, Glu¹⁴, Gly²³] -h -α-CGRP] (H-ACNTATCVTHRLAELLSRSGGVGKNNFVPTNVGSKAF-NH2; disulfide 2-7)",No deaths were observed
4,"CC(C)C[C@H](NC(=O)[C@H](CCCNC(=N)N)NC(=O)[C@H](Cc1c[nH]cn1)NC(=O)[C@@H](NC(=O)[C@@H](NC(=O)[C@@H]1CSSC[C@H](NC(=O)[C@H](C)N)C(=O)N[C@@H](CC(N)=O)C(=O)N[C@@H]([C@@H](C)O)C(=O)N[C@@H](C)C(=O)N[C@@H]([C@@H](C)O)C(=O)N1)C(C)C)[C@@H](C)O)C(=O)N[C@@H](C)C(=O)N[C@@H](CCC(=O)O)C(=O)N[C@@H](Cc1ccccc1)C(=O)N[C@@H](CC(C)C)C(=O)N[C@@H](CO)C(=O)N[C@@H](CCCNC(=N)N)C(=O)N[C@@H](CO)C(=O)NCC(=O)NCC(=O)N[C@H](C(=O)N[C@H](C(=O)N[C@@H](CCCCN)C(=O)N[C@@H](CC(N)=O)C(=O)N[C@@H](CC(N)=O)C(=O)N[C@@H](Cc1ccccc1)C(=O)N[C@H](C(=O)N1CCC[C@H]1C(=O)N[C@H](C(=O)N[C@@H](CC(N)=O)C(=O)N[C@H](C(=O)NCC(=O)N[C@@H](CO)C(=O)N[C@@H](CCCCN)C(=O)N[C@@H](C)C(=O)N[C@@H](Cc1ccccc1)C(N)=O)C(C)C)[C@@H](C)O)C(C)C)C(C)C)C(C)C [[Asn³, Glu¹⁴, Phe¹⁵] -h -α-CGRP] (H-ACNTATCVTHRLAEFLSRSGGVVKNNFVPTNVGSKAF-NH2; disulfide 2-7)",No deaths were observed
5,"CC(C)C[C@H](NC(=O)[C@H](CCCNC(=N)N)NC(=O)[C@H](Cc1c[nH]cn1)NC(=O)[C@@H](NC(=O)[C@@H](NC(=O)[C@@H]1CSSC[C@H](NC(=O)[C@H](C)N)C(=O)N[C@@H](CC(N)=O)C(=O)N[C@@H]([C@@H](C)O)C(=O)N[C@@H](C)C(=O)N[C@@H]([C@@H](C)O)C(=O)N1)C(C)C)[C@@H](C)O)C(=O)N[C@@H](C)C(=O)NCC(=O)N[C@@H](Cc1ccccc1)C(=O)N[C@@H](CC(C)C)C(=O)N[C@@H](CO)C(=O)N[C@@H](CCCNC(=N)N)C(=O)N[C@@H](CO)C(=O)NCC(=O)NCC(=O)N[C@H](C(=O)NCC(=O)N[C@@H](CCCCN)C(=O)N[C@@H](CC(N)=O)C(=O)N[C@@H](CC(N)=O)C(=O)N[C@@H](Cc1ccccc1)C(=O)N[C@H](C(=O)N1CCC[C@H]1C(=O)N[C@H](C(=O)N[C@@H](CC(N)=O)C(=O)N[C@H](C(=O)NCC(=O)N[C@@H](CO)C(=O)N[C@@H](CCCCN)C(=O)N[C@@H](C)C(=O)N[C@@H](Cc1ccccc1)C(N)=O)C(C)C)[C@@H](C)O)C(C)C)C(C)C [[Asn³, Phe¹⁵, Gly²³] -h -α-CGRP] (H-ACNTATCVTHRLAGFLSRSGGVGKNNFVPTNVGSKAF-NH2; disulfide 2-7)",No deaths were observed
6,CC(C)C[C@H](NC(=O)[C@H](CCCNC(=N)N)NC(=O)[C@H](Cc1c[nH]cn1)NC(=O)[C@@H](NC(=O)[C@@H](NC(=O)[C@@H]1CSSC[C@H](NC(=O)[C@H](C)N)C(=O)N[C@@H](CC(=O)O)C(=O)N[C@@H]([C@@H](C)O)C(=O)N[C@@H](C)C(=O)N[C@@H]([C@@H](C)O)C(=O)N1)C(C)C)[C@@H](C)O)C(=O)N[C@@H](C)C(=O)N[C@@H](CC(=O)O)C(=O)N[C@@H](CC(C)C)C(=O)N[C@@H](CC(C)C)C(=O)N[C@@H](CO)C(=O)N[C@@H](CCCNC(=N)N)C(=O)N[C@@H](CO)C(=O)NCC(=O)NCC(=O)N[C@H](C(=O)N[C@H](C(=O)N[C@@H](CCCCN)C(=O)N[C@@H](CC(N)=O)C(=O)N[C@@H](CC(N)=O)C(=O)N[C@@H](Cc1ccccc1)C(=O)N[C@H](C(=O)N1CCC[C@H]1C(=O)N[C@H](C(=O)N[C@@H](CC(N)=O)C(=O)N[C@H](C(=O)NCC(=O)N[C@@H](CO)C(=O)N[C@@H](CCCCN)C(=O)N[C@@H](C)C(=O)N[C@@H](Cc1ccccc1)C(N)=O)C(C)C)[C@@H](C)O)C(C)C)C(C)C)C(C)C [[Asp¹⁴ ] -h -α-CGRP] (H-ACDTATCVTHRLADLLSRSGGVVKNNFVPTNVGSKAF-NH2; disulfide 2-7),No deaths were observed
7,CC(C)C[C@H](NC(=O)[C@H](CCCNC(=N)N)NC(=O)[C@H](Cc1c[nH]cn1)NC(=O)[C@@H](NC(=O)[C@@H](NC(=O)[C@@H]1CSSC[C@H](NC(=O)[C@H](C)N)C(=O)N[C@@H](CC(=O)O)C(=O)N[C@@H]([C@@H](C)O)C(=O)N[C@@H](C)C(=O)N[C@@H]([C@@H](C)O)C(=O)N1)C(C)C)[C@@H](C)O)C(=O)N[C@@H](C)C(=O)N[C@@H](CCC(=O)O)C(=O)N[C@@H](CC(C)C)C(=O)N[C@@H](CC(C)C)C(=O)N[C@@H](CO)C(=O)N[C@@H](CCCNC(=N)N)C(=O)N[C@@H](CO)C(=O)NCC(=O)NCC(=O)N[C@H](C(=O)N[C@H](C(=O)N[C@@H](CCCCN)C(=O)N[C@@H](CC(N)=O)C(=O)N[C@@H](CC(N)=O)C(=O)N[C@@H](Cc1ccccc1)C(=O)N[C@H](C(=O)N1CCC[C@H]1C(=O)N[C@H](C(=O)N[C@@H](CC(N)=O)C(=O)N[C@H](C(=O)NCC(=O)N[C@@H](CO)C(=O)N[C@@H](CCCCN)C(=O)N[C@@H](C)C(=O)N[C@@H](Cc1ccccc1)C(N)=O)C(C)C)[C@@H](C)O)C(C)C)C(C)C)C(C)C [[Glu¹⁴ ] -h -α-CGRP] (H-ACDTATCVTHRLAELLSRSGGVVKNNFVPTNVGSKAF-NH2; disulfide 2-7),No deaths were observed
8,CC(C)C[C@H](NC(=O)CNC(=O)[C@H](C)NC(=O)[C@H](CC(C)C)NC(=O)[C@H](CCCNC(=N)N)NC(=O)[C@H](Cc1cnc[nH]1)NC(=O)[C@@H](NC(=O)[C@@H](NC(=O)[C@@H]1CSSC[C@H](NC(=O)[C@H](C)N)C(=O)N[C@@H](CC(=O)O)C(=O)N[C@@H]([C@@H](C)O)C(=O)N[C@@H](C)C(=O)N[C@@H]([C@@H](C)O)C(=O)N1)C(C)C)[C@@H](C)O)C(=O)N[C@@H](CC(C)C)C(=O)N[C@@H](CO)C(=O)N[C@@H](CCCNC(=N)N)C(=O)N[C@@H](CO)C(=O)NCC(=O)NCC(=O)N[C@H](C(=O)N[C@H](C(=O)N[C@@H](CCCCN)C(=O)N[C@@H](CC(N)=O)C(=O)N[C@@H](CC(N)=O)C(=O)N[C@@H](Cc1ccccc1)C(=O)N[C@H](C(=O)N1CCC[C@H]1C(=O)N[C@H](C(=O)N[C@@H](CC(N)=O)C(=O)N[C@H](C(=O)NCC(=O)N[C@@H](CO)C(=O)N[C@@H](CCCCN)C(=O)N[C@@H](C)C(=O)N[C@@H](Cc1ccccc1)C(N)=O)C(C)C)[C@@H](C)O)C(C)C)C(C)C)C(C)C [h - α - CGRP],No deaths were observed
9,c - CGRP,No deaths were observed
10,"desalanyl- [Asp^3, Asu^2,⁷)-c-CGRP",No deaths were observed
11,"desalanyl- [Asu^2,7] -h - α-CGRP",No deaths were observed
12,"desalanyl- [Asu^2,7] -h -β-CGRP",No deaths were observed
